# Results from patent US9884032B2, “Esters of short chains fatty acids for use in the treatment of immunogenic disorders” (priority 2012, dated 2018).
# Where “and” joins values, the source holds several entries; their conditions need not be identical. Equal entries are not always repeated. Entries after “also recorded” stand apart in the source; their conditions may differ. Where two headings read alike, the source gives them in different places.
# Tests used:
# Format in all cases: in vivo, BALB/c mice
# [1] = tested on: Influenza virus strain PR8; test: Propionate intranasal efficacy study, influenza: lung viral load by PCR (Example 1); details: 100 mg/kg intranasally on days -3, -1, 0; day 5 post infection; compared to saline
# Description: On day 0 all mice were infected with Influenza virus strain PR8. On day 5 post infection, mice were sacrificed, lungs isolated and viral load determined by PCR.
# Female BALB/c mice were purchased from Charles River Laboratories at 8 weeks of age. […] On day 0 mice were infected with 100 PFU of Influenza strain PR8 in 30 μl of PBS solution. On day 5 post infection, mice were sacrificed and lungs were removed and placed in Tri reagent solution. Total RNA was purified from cells obtained from whole lung tissue using Tri reagent. Real time PCR was carried out according to manufacturers instructions using the quantifast SYBR green RT-PCR kit (Qiagen). The following primers Influenza matrix protein primers were used: forward 5′-[…]-3′, reverse 5′-[…]-3′. B-actin primers forward 5′-[…]-3′, reverse 5′-[…]-3′ as previously described van Elden, L. J., M. Nijhuis, P. Schipper, R. Schuurman, A. M. van Loon. 2001. Simultaneous detection of influenza viruses A and B using real-time quantitative PCR. J. Clin. Microbiol. 39: 196-200.
# [2] = tested on: metapneumonia virus A1 6621 (MPV); details: 100 mg/kg intranasally day -1 and 0; day 5 post infection
# [3] = tested on: airway eosinophilia; test: Propionate intranasal efficacy study, HDM asthma: BAL differential cell counts (Example 3); details: 100 mg/kg intranasally; all treatment regimes (pretreatment; pretreatment and priming; pretreatment, priming and challenge); day 14
# Description: On days 0, 2, 4, 7, 8 and 11 mice were exposed to 15 ug of house dust mite extract (Greer) intranasally. On day 14, all mice were sacrificed and bronchoalveolar lavage (BAL) was performed with sterile PBS. The total number of macrophages (FIG. 3B), eosinophils (FIG. 3A), lymphocytes (FIG. 3C) and neutrophils (FIG. 3D) was determined by total and differential cell counts using standard morphological and cytochemical techniques.
# BAL was performed by flushing the airways three times with 1 ml PBS. Total BAL cells were counted using a Coulter Counter (IG Instruments) and spun onto glass slides using a Cytospin 2 (Shandon Southern Products, Ltd.). Cells were then stained with Diff Quick staining set (Siemens-Dade Behring). Percentages of eosinophils, macrophages, lymphocytes and neutrophils were determined microscopically using standard morphological and cytochemical criteria.
# Female BALB/c mice were purchased from Charles River Laboratories at 8 weeks of age. […] On days 0, 2, 4, 7, 8 and 11 mice were exposed to 15 μg of house dust mite extract (Greer) per nasal. On day 14, all mice were sacrificed and bronchoalveolar lavage (BAL) was performed with sterile PBS. The total number of macrophages, eosinophils, lymphocytes and neutrophils was determined by total and differential cell counts using standard morphological and cytochemical techniques. […]
# [4] = tested on: Influenza A strain HK/PR8; details: for delta Ct / flu/β-actin: lungs day 5, individual mice; for flu/β-actin: Experiment 3
structure (smiles),measurement,setting,value
CCC(=O)[O-].[Na+] [sodium propionate],viral load in the lungs,[1],markedly lower viral load
same,protection against MPV infection,[2],exhibits efficacy in the protection against MPV infection
same,airway eosinophilia (BAL eosinophils),[3],statistically significant reductions
same,Flu titer at 1 mg/kg compared with the other doses,"[4]; Experiment 1, doses 100, 10, 1 mg/kg i.n.",lowest Flu titers
same,delta Ct,"[4]; Experiment 2, 0.01 mg/kg i.n. day 0, listed as NA Propionate, 0.01 mg/kg",0.05776 and 0.1427 and 0.4687 and 0.01899 and 0.2875
same,delta Ct,"[4]; Experiment 2, 0.1 mg/kg i.n. day 0, listed as NA Propionate, 0.1 mg/kg",0.3178 and 0.08239 and 0.2101 and 0.01484 and 0.2815
same,delta Ct,"[4]; Experiment 2, 1 mg/kg i.n. day 0, listed as NA Propionate, 1 mg/kg",0.01819 and 0.02787 and 0.08699 and 0.009033 and 0.07967
same,delta Ct,"[4]; Experiment 2, 10 mg/kg i.n. day 0, listed as Na Propionate, 10 mg/kg",0.1146 and 0.03546 and 0.05123 and 0.1345
same,delta Ct,"[4]; Experiment 2, 100 mg/kg i.n. day 0, listed as Na Propionate, 100 mg/kg",0.02338 and 0.01681 and 0.2248 and 0.2282
same,"efficacy against influenza infection, dose titration","[4]; Experiment 2, dose of 0.1 mg/kg or less i.n.",lack of efficacy
same,Flu titer / efficacy at 1 mg/kg compared with the other doses,"[4]; Experiment 2, doses 100 to 0.01 mg/kg i.n.",highest efficacy; also recorded: lowest Flu titer
same,"efficacy against influenza infection, dose titration","[4]; Experiment 2, from 100 mg/kg to 1 mg/kg i.n.",trend towards efficacy
same,flu/β-actin,"[4]; 100 mg/kg i.n. Day 0, listed as Na Propionate, 100 mg/kg",0.154 and 0.244 and 0.334 and 0.303
same,flu/β-actin,"[4]; 100 mg/kg i.n. Day +1, listed as Na Propionate, 100 mg/kg",0.176 and 0.277 and 0.312 and 0.217
same,"optimal dose, intranasal","[4]; mouse, in vivo",1 mg/kg
